This is an account of results in patent publication US20260201335A1, “A Method to Generate Cardiac Pericytes from Human Induced Pluripotent Stem Cells” (The Board of Trustees of the Leland Stanford Junior …, priority 2022, published 2026).

Data set [1] concerns iPSC-CPs. Description: Calcium imaging using Fura-2 AM after carbachol. The class given is cell-based, human. The source says: (§1) FIG. 1. […] Key changes of hallmarks in each cluster are highlighted. […] GraphPad Prism 9 was used for statistical analysis. All data are presented as mean±sem.
(§2) Next, we examined the relative cell contraction capacities of iPSC-CPs versus iPSC-SMCs by measuring intracellular calcium transients after carbachol treatment. […] We also tested the pro-angiogenic potentials of iPSC-CPs.

A further data set relates to iPSC-SMCs. Description: Calcium imaging using Fura-2 AM after carbachol. The class given is cell-based, human. The following applies: iPSC-SMCs after carbachol treatment.
Description: as §1, §2

Another data set relates to CPs. The settings on record: mice, cited from earlier work.
The subject of data set [2] is iPSC-CPs. Put plainly: PrestoBlue viability assay, sunitinib dose-response. The class given is cell-based, human. The settings on record: 72 hr, sunitinib 0 μM-100 μM. The source says:
(§3) FIG. 1. Phenotypic characterization and functional assessment of stepwise differentiated iPSC-cardiac pericytes. A, A schematic showing stage-specific inhibition and activation of morphogens to generate pure epicardial cells (EPI) from human induced pluripotent stem cells (iPSCs). […] MPS, mid-primitive streak; LPM, lateral plate mesoderm; SM, splanchnic mesoderm; ST, septum transversum; PEO, pre-epicardial organ. B, Immunofluorescent images (ZO1 and WT1), flow cytometry (WT1) graphs (n=10 iPSC lines, 5M/5F), and quantitative data showing EPI induction efficiency by stepwise (i) and GiWiGi (ii) protocols. C, Quantitative reverse transcription PCR (RT-qPCR) results showing expression levels of canonical (WT1, TBX18, and TCF21) and mature (ALDH1A2, UPK3B, and ANXA8) markers of EPIs derived by both protocols. D, Single-cell ATAC sequencing (scATAC-seq) of EPIs generated by both GiWiGi (ii) and stepwise (iii) protocols are projected to that of human fetal heart cell clusters (i). […] H, Bright field and immunofluorescent images of iPSC-derived SMCs, cardiac fibroblasts (CFs), and endothelial cells (ECs).

In the next data set the test system is primary and iPSC-CPs. Description: Thalidomide rescue of sunitinib-induced CP death (cell morphology). The class given is cell-based, human. The settings on record: sunitinib (5 μM)/thalidomide (1 μM), 72 hr.
Description: as §3

For data set [3], the system named is iPSC-CPs. Description: Gene clustering / gene ontology analysis of treated iPSC-CPs (RNA-seq). The class given is cell-based, human. The settings on record: sunitinib (5 μM)/thalidomide (1 μM), 72 hr.
The next data set has as its system stepwise EPIs. Put plainly: Differentiation of stepwise EPIs to iPSC-CPs with exogenous PDGF-BB (flow cytometry). The class given is cell-based, human. The settings on record: exogenous PDGF-BB in pericyte medium.
Description: as §1
Next, we differentiated stepwise EPIs in a commercial pericyte medium and observed that it took at least 12 days to generate iPSC-CPs (FIG. 1E) with low efficiency (FIG. 1F).
Day 11. EPI to Cardiac pericyte, CP. Aspects of the disclosure relate to producing cardiac pericytes through contacting a population of epicardial cells with a cardiac pericyte composition. As described herein, cardiac pericyte induction compositions may vary and generally comprise effective amounts of a PDGF pathway activator in a commercial pericyte medium (ScienCell cat #1201). An exemplary CP induction medium comprises 10 ng/ml PDGF-BB in pericyte medium.
For orientation: Flow cytometry measures light scatter and fluorescence of single cells or particles in a stream.

Turning to `C[N+](C)(C)CCOC(N)=O` [carbachol], in the data set with iPSC-CPs [1] (after carbachol treatment), the “calcium amplitude, iPSC-CPs versus iPSC-SMCs” value is listed as “much smaller calcium amplitude”. Also, the “contraction pattern (intracellular calcium transients)” value in the data set with iPSC-CPs [1] (iPSC-CPs after carbachol treatment) and in the data set with iPSC-SMCs was “stereotypical contraction pattern” throughout.

`CCN(CC)CCNC(=O)c1c(C)[nH]c(/C=C2\C(=O)Nc3ccc(F)cc32)c1C` [sunitinib]: the “coronary microvascular abnormalities and cardiac dysfunction, primary target cells” value in the data set on CPs (previous study) is given as “CPs were the primary targets”. Also, the “sunitinib-induced cell death, sensitivity of iPSC-CPs versus iPSC-CMs” value in the data set on iPSC-CPs [2] is given as “iPSC-CPs were more sensitive than iPSC-CMs”.

For the molecule `O=C1CCC(N2C(=O)c3ccccc3C2=O)C(=O)N1` (stereo not drawn) [thalidomide], the “rescue from sunitinib-induced CP loss and cardiac dysfunction” value with CPs is “can rescue mice from sunitinib-induced CP loss and cardiac dysfunction”. For the same molecule, the “rescue of CP death” value with primary and iPSC-CPs was “profoundly rescued CP death”. In addition, the “genes associated with cell cycle, pericyte function, and DNA damage” value in the data set with iPSC-CPs [3] is “restored genes associated with cell cycle, pericyte function, and DNA damage to a baseline level”.

B1: PDGF-BB: platelet-derived growth factor ligand predominantly secreted by ECs; PDGF pathway activator (protein, UniProt P01127 82-190, looked up)
Platelet-derived growth …: SLGSLTIAEPAMIAECKTRTEVFEISRRLIDRTNANFLVWPPCVEVQRCSGCCNNRNVQCRPTQVQLRPVQVRKIEIVRKKPIFKKATVTLEDHLACKCETVAAARPVT
modifications: homodimer
On to B1, for which the “generation of iPSC-CPs (PDGFRβ+/CD146+/NG2+/CD13+)” value in the data set on stepwise EPIs is on record as “successfully generated pure iPSC-CPs”.
